Usually LD50 stands for the dose at which mortality reaches 50%.

Here are results for 4 compounds from US4067982A, “Aryl-substituted piperazinyl-alkylamino-uracils, -uracil ethers and -uracil thioethers as therapeutics” (priority 1976, dated 1978).

Data set [1] deals with blood pressure increasing effect of adrenaline. Put plainly: Inhibition of the pressor effect of adrenaline, despinalized rat. The conditions noted are these: iv, 0.001 mg/kg i.v. adrenaline, read-out: 50% inhibition of the press. effect after i.v. administration of adrenaline with. The class given is in vivo.
Data set [2] concerns carotid sinus relaxation reflex of the narcotized cat. Put plainly: Inhibition of the carotid sinus reflex, narcotized cat. Type of data set: in vivo. To be noted: Felis catus, iv; for ED30: 30% inhibition; for ED50: 50% inhibition.
In data set [3] the test system is blood pressure, circulatory system and central nervous system. To be noted: recognized; cited from earlier work.
Data set [4] has as its system blood pressure of the narcotized rat. In words: Lowering of the blood pressure, narcotized rat. Type of data set: in vivo. Also on record: unit not given here. To be noted: 30% lowering.
The subject of data set [5] is blood pressure of the narcotized cat. Put plainly: Lowering of the blood pressure, narcotized cat. Type of data set: in vivo. The conditions noted are these: Felis catus, iv; for ED30: 30% lowering; for ED50: 50% lowering.
In data set [6] the test system is blood pressure increasing effect of noradrenaline. In words: Inhibition of the pressor effect of noradrenaline, despinalized rat. The class given is in vivo. To be noted: iv, 0.001 mg/kg i.v. noradrenaline, read-out: 50% inhibition of the press. effect after i.v. administration of noradrenaline with.
The subject of data set [7] is mouse. In words: SD50, sedation symptoms, mouse. To be noted: mouse, oral; dose at which 50% show inhibition of spontaneous motility, sedation, muscle relaxation, loss of gripping; read-out: SD50 (the source's name). Type of data set: in vivo.
Description: b = Dose, at which at an average 50% of the mice show the following symptoms: inhibition of the spontaneous motility, sadation, muscle relaxation, loss of gripping and holding ability on a horizontal wire net.
The nature of another data set: Solubility. The class given is physicochemical.
In data set [8] the test system is mouse. In words: Analgesic effect, thermal stimulation of the tail of the mouse. The class given is in vivo. The conditions noted are these: oral, 25% retardation, read-out: Retardation of the defense reaction upon thermal stimulation of the tail of the mouse by 25%. The source says: The analgesic effect was thereby determined as the delay in the reaction upon thermal stimulation of the tail of the mouse.

A further data set in a line: in vivo. To be noted: mouse.
Data set [9] concerns mouse. Put plainly: PD50, rotating rod, mouse. The class given is in vivo. The conditions noted are these: ip; mouse, i.p.; dose at which an average of 50% of the mice fall from a rotating rod; read-out: PD50. The source says:
The centrally inhibiting effect of the piperazinyl uracils of the invention in the mouse are apparent from Table IV. […] The selective action of the compounds of the invention on the central blood pressure mechanism can be used advantageously in human therapy in the treatment of hypertonic diseases.
a = Dose, at which an average of 50% of the mice fall from a rotating rod.

Data set [10] relates to mouse. In words: Inhibition of the motility in the tread wheel, mouse. The class given is in vivo. To be noted: mouse, 5 mg/kg d-amphetamine-sulfate, 180 minutes.
Data set [11] concerns systolic and diastolic blood pressure. In words: Clinical test, blood pressure in patients. Type of data set: in vivo, human. As for the experimental part:
(§1) Clinical tests were conducted with the 1,3-dimethyl-4-(γ-[4(o-methoxyphenyl)-piperazinyl-(1)]-propylamino)- uracil on two female and three male patients, with doses of 10, 20, 40 and 60 mg orally administered.
Attached Diagrams 1 and 2 show the changes of the blood pressure under the effect of various doses of 1,3-dimethyl-4-(γ-[4-(o-methoxyphenyl)-piperazinyl-(1)]-propylamino)-uracil. […] Diagram 2shows the changes of the diastolic blood pressure with the same doses of the uracil compound at an average starting diastolic blood pressure (RRd) of 95.3 mm Hg plotted against the dose of the uracil compound.

Data set [12] deals with mouse. Put plainly: Prolongation of sleep induced by hexobarbital, mouse. The conditions noted are these: ip; mouse, 15 mg/kg i.p.; 75 mg/kg hexobarbital; vs controls; read-out: % prolongation of sleep induced by hexobarbital by 15 mg/kg i.p. Type of data set: in vivo.
Protocol: d = Percent prolongation of the duration of sleep of mice, which were administered 75 mg/kg hexobarbital, compared with the sleep duration of controls.
The next data set concerns patients. Put plainly: Clinical test, compatibility and sensory functions in patients. To be noted: two female and three male patients; 10, 20, 40 and 60 mg oral. Type of data set: in vivo, human. As for the experimental part: as §1
For data set [13], the system named is histamine spasm of the isolated small intestine of the guinea pig. Put plainly: Antihistamine effect, histamine spasm of isolated small intestine.
A further data set can be described thus: Hygroscopicity. Type of data set: physicochemical. To be noted: solid product.

Regarding `Cc1ccc(N(CC2=NCCN2)c2cccc(O)c2)cc1` [Phentolamine, 2-[N'-p-tolyl-N'-(m-hydroxyphenyl)-aminomethyl]-2-imidiozoline, reference compound], the ED50 in data set [1] stood at 0.047 mg/kg; in data set [2] it was 0.5 mg/kg; in data set [5], 0.7 mg/kg; in data set [6], 0.18 mg/kg. Besides, the ED30 in data set [2] and in data set [5] was 0.1 mg/kg throughout. Further, in data set [3], the mechanism of phentolamine result was “specifically inhibiting the stimulating effect of adrenaline and noradrenaline, typical alpha-blocking agent”. Also, in data set [4], the “lowering of the blood pressure by 30% by” value is 0.63.

With `COc1ccccc1N1CCN(CCCNc2cc(=O)n(C)c(=O)n2C)CC1` [Example 4, 1,3-Dimethyl-4-(γ-[4-(o-methoxyphenyl)piperazinyl-(1)]-propylamino)-uracil], the ED50 is 100 mg/kg in the data set with mouse [7]; 0.36 mg/kg in [1]; 0.16 mg/kg in data set [2]; 52 mg/kg with mouse [9]; 0.65 mg/kg in data set [5]; 1.9 mg/kg in data set [6]. Besides, the “solubility in aqueous acetone” value in “Solubility” is “readily soluble in aqueous acetone”. Moreover, the ED25 in the data set on mouse [8] was 2.4 mg/kg. This compound also returned an LD50 in “in vivo” of 400 mg/kg. The ED30 is 0.03 mg/kg in data set [2] and 0.14 mg/kg in data set [5]. Moreover, the “lowering of the blood pressure by 30% by” value in data set [4] is 0.71. The inhibition in vivo at 25 mg/kg in the data set on mouse [10] (ip, 3 h, 25 mg/kg i.p., read-out: % Inhibition of the motility in the tread wheel by 25 mg/kg i.p.) was determined as 36%. For the same compound, the “dose response of blood pressure lowering (Diagrams 1 and 2)” value in [11] (doses 0 to 60 mg, average starting RRs 171.9 mm Hg, RRd 95.3 mm Hg) is listed as “the blood pressure is progressively lowered in response to an increasing dose of the uracil compound”. For the same compound, in data set [11] (patients, 20 mg vs 40 mg), the “difference in the effect of a dose of 20 mg and a dose of 40 mg” value is reported as “statistically confirmed”. Also, the “lowering of the systolic and diastolic blood pressure” value in data set [11] (two female and three male patients, 10, 20, 40 and 60 mg oral) was “statistically significant lowering of the systolic and diastolic blood pressure”. For the same compound, the change in vivo at 15 mg/kg in the data set with mouse [12] worked out at 71%. Moreover, the compatibility entry in the data set with patients is listed as “excellent compatibility”. Further, the “effect on perception and other sensory functions” value in the data set on patients is “no adverse effect on perception and other sensory functions”.

As to `Cc1ccccc1N1CCN(CCCNc2cc(=O)n(C)c(=O)n2C)CC1` [Example 12, 1,3-Dimethyl-4-(γ-[4-(o-tolyl)-piperazinyl(1)]-propylamino)-uracil], the ED50 in the data set with mouse [7] turned out to be 87 mg/kg; in [1], 0.45 mg/kg; with mouse [9], 26 mg/kg; in data set [5], 2.4 mg/kg; in data set [6] it was 2.5 mg/kg. The ED25 with mouse [8] stood at 6.5 mg/kg. Further, in the data set “in vivo”, the LD50 came out at 70 mg/kg. The “lowering of the blood pressure by 30% by” value in [4] came to 1.0. Moreover, in [5], the ED30 amounted to 0.41 mg/kg. Moreover, the “% Inhibition of the motility in the tread wheel by 12 mg/kg i.p.” value in the data set on mouse [10] (12 mg/kg i.p.) worked out at 42%. Also, the change in vivo at 15 mg/kg with mouse [12] amounted to 49%. For the same compound, the “50% inhibition of the histamine spasm of the isolated small intestine of the guinea pig” value in [13] is 3e-08 g/mL.

Take `COc1ccccc1N1CCN(CCCNc2c(N=O)c(=O)n(C)c(=O)n2C)CC1` [Example 19, 1,3-Dimethyl-4-(γ-[4-(o-methoxyphenyl)-piperazinyl-(1)]-propylamino)-5-nitroso-uracil]: in “Hygroscopicity”, the hygroscopicity result is given as “hygroscopic”.
